Columns and labels:
[1] = system: adhesion of U937 cells to activated HUVEC; assay: adhesion of U937 cells to activated HUVEC (BCECF fluorescence); assay type: cell-based, human; settings: 250 μM
Procedure: HUVEC were stimulated with either IL-1-α (100 ng/ml); TNF-α (10 ng/ml) or LPS ([…]) with or without the addition of 250 μM CT1501R one hour prior to addition of the stimulus. Twelve hours later, the cells were assayed for adhesion of BCECF-labeled U937 cells. FIG. 21 is the relative BCECF fluorescence (+/-SD) for each of the treatment groups.
Murine peritoneal exudate cell macrophages (PEC) were isolated by perfusion of mouse peritoneum and plated into 96-well trays at 5×10^5 cells per well. Cells were stimulated with 5 μg/ml Salmonella abortus equi-derived endotoxin CLPS; Sigma Chemical Co., L-1887) or 50 ng/ml IL-1α (Genzyme; Cambridge, Mass.) with or without the addition of CT1501R added to the cultures one hour prior to addition of the stimulus. At various times thereafter, supernatants were removed and levels of either TNF-α or IL-1α were assayed using commercial 96-well microtiter immunoassay kits (Genzyme; TNF; Endogen, Boston, Mass.; IL-1α) according to manufacturer's specifications. […] After addition of […] Hanks Balanced Salt Solution (HBSS), the microtiter plate was then analyzed on a Millipore Cytofiuor fluorescent plate reader (excitation 488 nm; emission 525 nm). […]

[2] = system: hair follicles of nu/nu mice; assay: nude mouse hair studies, topical application; assay type: in vivo
Source text: This example illustrates nude mouse hair studies involving topical application of CT1501R. Six to eight week old, female, nu/nu mice from Charles River Laboratories were housed at Biosupport Research Support Services (Seattle, Wash.) in autoclaved micro isolator units with hyperchlorinated autoclaved water, irradiated rodent chow and kept under a laminar flow hood. Caging was changed weekly, and water was changed twice weekly. The mice were acclimated for 5 days before beginning each study.
The first topical formulation was prepared by adding CT1501R to a heated hydrophilic ointment (USP) at a 1% concentration, and allowed to solidify.
Nude mice were painted twice daily for 16 days with the first topical formulation of CT1501R on the left flank and another compound in the same base on the right flank with sterile applicators. Mice were handled under the laminar flow hood with applicator wearing face mask and sterile gloves. After 16 days, one mouse was sacrificed by cervical dislocation and skin biopsies were taken of the treated areas of the shoulder/flank and from the non-treated area of the dorsal pelvis (rump). Specimens were placed in 10% buffered formalin solution. Biopsies were sent to a veterinary dermopathologist for histopathology. Six weeks following treatment, a second mouse was euthanatized and biopsied the same as the first. Samples were sent for histopathology.
In a second experiment, topical application of CT1501R was performed along with a commercial topical minoxidil preparation (Rogaine®, Upjohn) that is approved for a hair growth indication. Five to six week old, female, nu/nu mice from Bantin and Kingman Universal were housed at Biosupport Research Support Services (Seattle, Wash.) in autoclaved micro isolator units with hyper chlorinated autoclaved water, irradiated rodent chow and kept under a laminar flow hood. Caging was changed weekly, and water was changed twice weekly. Mice were acclimated for 7 days before beginning study, […]

In the case of `C[C@@H](O)CCCCn1c(=O)c2c(ncn2C)n(C)c1=O` [CT1501R, (R)-1-(5-hydroxyhexyl)-3,7-dimethylxanthine], the “relative adhesiveness of activated HUVEC for U937 cells” value ([1]; 1 hour prior to TNF-α, IL-1α or LPS) is reported as “marked suppression in the relative adhesiveness”, the “background attachment of U937 cells to HUVEC” value ([1]; non-activated HUVEC) is reported as “no significant effect on background attachment” and the “hair follicles, histopathology of treated vs non treated skin sections” value ([2]; first experiment, 1% in hydrophilic ointment, twice daily for 16 days) is reported as “significantly more normal appearing hair follicles than the non treated sections”. For the same compound, the “hair follicles, subjective histopathological examination” value ([2]; second experiment, 60% ETOH, 10% water, 30% PEG base, twice daily, 34 days) was “greatest concentration of hair folicles”.
